The values below come from patent US20210198277A1, “AMINE-SUBSTITUTED ARYL OR HETEROARYL COMPOUNDS” (Epizyme, Inc., priority 2016, published 2021).

Bounds are passed on as bounds.

In general, IC50 refers to the concentration needed to halve the response being measured.

This assay deals with T1, EHMT1 (Homo sapiens, UniProt Q9H9B1).
T1 sequence (Q9H9B1 1-1298): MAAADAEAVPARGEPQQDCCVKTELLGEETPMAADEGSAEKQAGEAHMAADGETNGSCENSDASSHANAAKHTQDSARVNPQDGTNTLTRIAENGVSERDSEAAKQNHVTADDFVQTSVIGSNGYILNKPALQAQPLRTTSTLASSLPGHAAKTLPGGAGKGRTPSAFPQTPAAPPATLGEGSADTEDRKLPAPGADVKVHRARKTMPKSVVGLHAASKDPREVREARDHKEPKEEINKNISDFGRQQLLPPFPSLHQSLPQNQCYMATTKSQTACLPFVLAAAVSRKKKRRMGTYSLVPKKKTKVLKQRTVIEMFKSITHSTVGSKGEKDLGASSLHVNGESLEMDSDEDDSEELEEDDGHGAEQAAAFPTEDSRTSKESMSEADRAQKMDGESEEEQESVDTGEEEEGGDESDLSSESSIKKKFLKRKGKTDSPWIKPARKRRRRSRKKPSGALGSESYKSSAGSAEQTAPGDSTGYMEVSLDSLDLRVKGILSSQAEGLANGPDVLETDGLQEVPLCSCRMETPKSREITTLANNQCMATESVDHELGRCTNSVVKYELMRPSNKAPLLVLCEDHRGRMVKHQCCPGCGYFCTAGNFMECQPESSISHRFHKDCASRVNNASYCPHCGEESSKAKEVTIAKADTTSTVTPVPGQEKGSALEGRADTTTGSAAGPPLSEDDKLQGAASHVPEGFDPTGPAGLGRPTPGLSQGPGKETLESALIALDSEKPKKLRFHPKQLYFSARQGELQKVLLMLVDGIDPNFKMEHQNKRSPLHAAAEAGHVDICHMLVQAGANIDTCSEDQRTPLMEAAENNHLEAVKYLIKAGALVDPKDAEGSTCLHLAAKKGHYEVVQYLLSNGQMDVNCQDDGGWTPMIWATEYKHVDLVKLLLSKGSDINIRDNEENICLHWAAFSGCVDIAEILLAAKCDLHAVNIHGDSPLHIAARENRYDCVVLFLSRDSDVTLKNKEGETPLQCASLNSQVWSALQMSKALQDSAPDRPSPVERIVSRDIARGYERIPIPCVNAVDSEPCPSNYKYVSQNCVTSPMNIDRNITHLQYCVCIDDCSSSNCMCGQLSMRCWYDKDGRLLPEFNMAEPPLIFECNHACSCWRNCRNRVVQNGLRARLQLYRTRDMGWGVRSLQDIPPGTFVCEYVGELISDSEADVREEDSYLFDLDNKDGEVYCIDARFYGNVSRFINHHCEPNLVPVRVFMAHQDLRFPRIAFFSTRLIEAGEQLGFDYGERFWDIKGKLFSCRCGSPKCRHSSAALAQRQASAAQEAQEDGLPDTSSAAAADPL
The experiment in a line: EHMT1 enzyme assay on peptide substrate (EHMT1 PEP). It counts as biochemical. Particulars: Table VI; read-out: EHMT1 PEP IC50.
Regarding `COc1cc2c(C3CCOCC3)cc(-c3cn[nH]c3)nc2cc1OCCCN1CCCC1` [Compound 679], the IC50 was in the range of 1000 to 10000 nM.
Regarding `CNc1cc(C)nc(Nc2ccc(OC)c(OC[C@H](O)CN3CCC3)c2)n1` [Compound 1038, (2R)-1-(azetidin-1-yl)-3-(2-methoxy-5-[[4-methyl-6-(methylamino)pyrimidin-2-yl]amino]phenoxy)propan-2-ol], the IC50 is less than 100 nM.
Take `COc1cc(NC2CCNCC2)ncc1OCC1CCN(C)C1` (stereo not shown) [Compound 604]: the IC50 was 100 to 1000 nM.
To `CNc1cc(C)nc(Nc2cnc(OC)c(CNCCN3CCCC3)c2)n1` [Compound 1031] belongs less than 100 nM.
The value for `COc1cc2c(C3CCN(C)CC3)cc(C)nc2cc1OCCCN1CC[C@H](F)C1` [Compound 741] was 100 to 1000 nM.
To `CNc1ccnc(Nc2ccc(OC)c(CNCCN3CCC3)c2)n1` [Compound 1033] belongs less than 100 nM; to `CCN1CC(COc2cc3nc(C)cc(C4CCN(C(C)C)CC4)c3cc2OC)C1` [Compound 661], less than 100 nM; to `CCN1CCC(NCc2cc(Nc3nc(C)cc(NC)n3)ccc2OC)C1` (stereo not shown) [Compound 646], 1000 to 10000 nM.
In the case of `COc1cc2c(C3CCN(C(C)C)CC3)cc(C)nc2nc1OCCCN1CCCC1` [Compound 670], the IC50 lay in the range of 100 to 1000 nM.
In the case of `CCN1CC(COc2cc3nc(C)nc(C4CCN(C)CC4)c3cc2OC)C1` [Compound 664], the IC50 was 1000 to 10000 nM.
With `CNc1ccnc(Nc2ccc(OC)c(CNC[C@H]3CCCN3)c2)n1` [Compound 1020], the IC50 was in the range of 1000 to 10000 nM.
For the molecule `COc1cc2c(C3CCN(C)CC3)nc(C)nc2cc1OCCCN1CCCC1` [Compound 658], the IC50 is 100 to 1000 nM.
To `CN1CCC(Nc2ncc(OCC3CCN(C)C3)cn2)CC1` (stereo not shown) [Compound 632] belongs more than 10000 nM; to `CCN1CC[C@@H](COc2cc3nc(C)nc(C4CCN(C(C)C)CC4)c3cc2OC)C1` [Compound 674], 1000 to 10000 nM.
To `COc1cc(Nc2ccc3[nH]ncc3n2)ncc1OCCCN1CCCC1` [Compound 648] belongs 1000 to 10000 nM; to `COc1cnc(Nc2cccc3nccn23)nc1OCCCN1CCCC1` [Compound 654], more than 10000 nM; to `CNc1ccnc(Nc2ccc(OC)c(CNC[C@@H]3CCCN3)c2)n1` [Compound 1019], 100 to 1000 nM.
With `CNc1nc(C)c2cc(OC)c(OCCCN3CCCC3)cc2n1` [Compound 737], the IC50 lay in the range of 1000 to 10000 nM.
The value for `CC(C)N1CC(COc2cnc(NC3CCNCC3)nc2)C1` [Compound 636] was more than 10000 nM.
`CCN1CC(NCc2cc(Nc3nc(C)cc(NC)n3)ccc2OC)C1` [Compound 647]: the IC50 was in the range of 1000 to 10000 nM.
To `COc1cc2c(C3CCN(C)CC3)cc(-c3cc[nH]n3)nc2cc1OCCCN1CCCC1` [Compound 678] belongs 100 to 1000 nM.
To `COc1cc2c(C3CCN(C)CC3)c(F)c(C)nc2cc1OCCCN1CCCC1` [Compound 652] belongs less than 100 nM.
